Our source for the TGI and GI50 values is PubChem BioAssay (NCI).

Some test systems named below: A498 renal; CAKI-1 renal; CCRF-CEM leukemia; COLO 205 colon; M14 melanoma; NCI-H460 lung; OVCAR-8 ovarian; SF-268 CNS; SR leukemia; TK-10 renal.
Assay in all cases: DTP human tumour cell line panel, 48 h

Several values for one entry are separate records, joined by “and”; a condition that tells them apart may be missing. Identical values can stand only once.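 Following 48 hours of exposure in 96-well plates, responses at five concentrations were used to interpolate endpoints linearly. GI50 = concentration required for 50% inhibition of growth. TGI marks complete inhibition of growth.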

On to `CC(C)(c1ccccc1)c1ccc(OC#N)cc1`, for which the TGI in the experiment on A498 renal is greater than 100 µM; in the experiment on CAKI-1 renal, greater than 100 µM; in the experiment with CCRF-CEM leukemia it was greater than 76.3 µM; with COLO 205 colon it was greater than 56.5 µM; in the experiment with M14 melanoma, greater than 100 µM; with NCI-H460 lung, greater than 59.1 µM. For the same compound, the TGI in the experiment on OVCAR-8 ovarian is greater than 100 µM; with SF-268 CNS, greater than 100 µM; with SR leukemia, 43.1 µM; in the experiment with TK-10 renal it was greater than 100 µM.

For `N#Cc1cccc(/C=N/N=C(\N)NO)c1`, the total growth inhibition concentration (TGI) in the experiment on A498 renal, in the experiment on CAKI-1 renal, with CCRF-CEM leukemia, with COLO 205 colon, with M14 melanoma and in the experiment with NCI-H460 lung was greater than 100 µM throughout. The total growth inhibition concentration (TGI) in the experiment with OVCAR-8 ovarian, in the experiment on SF-268 CNS, in the experiment on SR leukemia and in the experiment with TK-10 renal was greater than 100 µM throughout.

Consider `CN(Cc1cc(C(C)(C)C)cc(Br)c1O)Cc1cc(C(C)(C)C)cc(Br)c1O`, for which the TGI in the experiment on A498 renal was 8.93 µM; with CAKI-1 renal, 11.4 µM; in the experiment with CCRF-CEM leukemia it was 10.4 µM; in the experiment with COLO 205 colon, 28.4 µM; with M14 melanoma it was 14.9 µM; in the experiment with NCI-H460 lung it was 4.72 µM. The total growth inhibition concentration (TGI) turned out to be 15.3 µM in the experiment with OVCAR-8 ovarian, 11.2 µM with SF-268 CNS, 12.2 µM in the experiment on SR leukemia and 5.88 µM in the experiment with TK-10 renal.

In the case of `COC(=O)[C@@H](C)C[C@H](Cc1ccccc1)NC(=O)c1csc([C@@H](C[C@H](C(C)C)N(C)C(=O)[C@@H](NC(=O)[C@H]2CCCCN2C)C2CC2)OC(C)=O)n1`, the GI50 in the experiment on A498 renal was 0.000862 µM; with CAKI-1 renal, 0.00577 µM; with CCRF-CEM leukemia, 0.000621 µM and 0.00165 µM; in the experiment on COLO 205 colon it was 0.000369 µM and < 0.00165 µM; in the experiment with M14 melanoma, 0.000455 µM and < 0.00165 µM; with NCI-H460 lung, 0.000362 µM and 0.00165 µM. Further, the 50% growth inhibitory concentration (GI50) is 0.000629 µM and 0.00165 µM in the experiment with OVCAR-8 ovarian; 0.000594 µM and 0.00165 µM in the experiment with SF-268 CNS. The total growth inhibition concentration (TGI) in the experiment on CCRF-CEM leukemia was greater than 16.5 µM; with COLO 205 colon, 0.00336 µM and < 0.00165 µM; in the experiment with M14 melanoma it was less than 0.00165 µM; with NCI-H460 lung it was greater than 16.5 µM; in the experiment with OVCAR-8 ovarian it was greater than 16.5 µM; with SF-268 CNS, greater than 16.5 µM. In the experiment on SR leukemia, this compound gave a concentration for total growth inhibition (TGI) greater than 16.5 µM.

In the case of `CCN1CCC(O)(c2ccc(Cl)cc2)C(C(=O)c2ccc(Cl)cc2)C1` (stereo not given), the TGI with A498 renal, in the experiment with CCRF-CEM leukemia, in the experiment on COLO 205 colon, with M14 melanoma, in the experiment with NCI-H460 lung and with OVCAR-8 ovarian was greater than 100 µM each time. Moreover, the TGI in the experiment with SF-268 CNS, with SR leukemia and in the experiment on TK-10 renal was greater than 100 µM in each case.

For `CC12CCC(Br)C(C)(C)C1CC=C1C(=O)OCC1O2` (stereo not given), the concentration for total growth inhibition (TGI) is 24.7 µM in the experiment on A498 renal; 26.8 µM in the experiment on CAKI-1 renal; 34.7 µM with COLO 205 colon; greater than 51.9 µM in the experiment with M14 melanoma; 36.2 µM in the experiment on NCI-H460 lung; 34.9 µM in the experiment on OVCAR-8 ovarian. In addition, the TGI amounted to 31.9 µM in the experiment with SF-268 CNS, 31.2 µM in the experiment on SR leukemia and 28.5 µM in the experiment with TK-10 renal.

With `CC(=O)OCc1cc2ccccc2nc1C(Br)(Br)Br`, the TGI stood at 42.8 µM in the experiment with A498 renal; 29.5 µM with CAKI-1 renal; 29.3 µM with CCRF-CEM leukemia; 55.2 µM with COLO 205 colon; 55 µM in the experiment with M14 melanoma; 33.8 µM in the experiment on NCI-H460 lung. The total growth inhibition concentration (TGI) in the experiment on SF-268 CNS was determined as 39.9 µM; in the experiment with SR leukemia, 13.7 µM; in the experiment with TK-10 renal, 36.7 µM.

Take `CN(C)CCCNC(=O)c1cc(NC(=O)c2cc(NC(=O)CCNS(=O)(=O)c3ccc4c(c3)C(=O)c3ccccc3C4=O)cn2C)cn1C`: the GI50 in the experiment with A498 renal, with CAKI-1 renal, in the experiment with CCRF-CEM leukemia, with COLO 205 colon, in the experiment on NCI-H460 lung and in the experiment on OVCAR-8 ovarian was greater than 100 µM in each case. The GI50 in the experiment on SF-268 CNS was greater than 100 µM; in the experiment on SR leukemia, 85.9 µM; with TK-10 renal, 74.2 µM. Further, the concentration for total growth inhibition (TGI) in the experiment with A498 renal, in the experiment with CAKI-1 renal, in the experiment on CCRF-CEM leukemia, in the experiment with COLO 205 colon, in the experiment with NCI-H460 lung and in the experiment with OVCAR-8 ovarian was greater than 100 µM throughout. Moreover, the total growth inhibition concentration (TGI) in the experiment on SF-268 CNS, with SR leukemia and in the experiment with TK-10 renal was greater than 100 µM each time.

Consider `COc1ccc(OCC(=O)O)c(C(=O)CCC(=O)O)c1`, for which the TGI with A498 renal was greater than 100 µM; with CCRF-CEM leukemia it was greater than 100 µM; in the experiment on COLO 205 colon, greater than 100 µM; with M14 melanoma it was greater than 10 µM; with NCI-H460 lung it was greater than 100 µM; in the experiment with OVCAR-8 ovarian, greater than 100 µM. In addition, the concentration for total growth inhibition (TGI) in the experiment with SF-268 CNS, in the experiment on SR leukemia and in the experiment with TK-10 renal was greater than 100 µM each time.

Regarding `COc1ccccc1NC(=O)CC(=O)N/N=C/c1ccc(N(CCC#N)S(=O)(=O)c2ccccc2)cc1`, the TGI in the experiment on CAKI-1 renal, in the experiment on CCRF-CEM leukemia, with COLO 205 colon, in the experiment with M14 melanoma, with NCI-H460 lung and in the experiment with OVCAR-8 ovarian was greater than 100 µM each time. The TGI with SF-268 CNS, in the experiment on SR leukemia and in the experiment with TK-10 renal was greater than 100 µM each time.

Regarding `COc1cccc(/C=N/C(/N=C/c2cccc(OC)c2O)c2cccc(OC)c2O)c1O`, the TGI in the experiment with CAKI-1 renal was 48.1 µM; in the experiment with CCRF-CEM leukemia, greater than 100 µM; in the experiment with COLO 205 colon, greater than 100 µM; in the experiment with M14 melanoma, 48.2 µM; in the experiment on NCI-H460 lung it was 59.9 µM; in the experiment with OVCAR-8 ovarian it was 47.9 µM. Also, the values for the TGI with SF-268 CNS, with SR leukemia and with TK-10 renal were 42.5 µM, 35.1 µM and 55.6 µM, respectively.

As for `COC(=O)Nc1nc2ccc(Br)cc2[nH]1`, the TGI with A498 renal, with CCRF-CEM leukemia, with COLO 205 colon, with M14 melanoma, in the experiment on NCI-H460 lung and in the experiment with OVCAR-8 ovarian was greater than 100 µM throughout. For the same compound, the concentration for total growth inhibition (TGI) in the experiment on SF-268 CNS, in the experiment on SR leukemia and in the experiment on TK-10 renal was greater than 100 µM in each case.

On to `C=CCC1C(=O)CC2(C)CC(=O)C(CC=C)C12C` (stereo not given), for which the TGI with CAKI-1 renal, with CCRF-CEM leukemia, in the experiment on COLO 205 colon, in the experiment with M14 melanoma, in the experiment on NCI-H460 lung and with OVCAR-8 ovarian was greater than 100 µM each time. Further, the TGI in the experiment on SF-268 CNS, in the experiment on SR leukemia and in the experiment on TK-10 renal was greater than 100 µM in each case.
